Laboratory results from patent US20110189169A1, “COMBINATION OF HGF INHIBITOR AND PTEN AGONIST TO TREAT CANCER” (GALAXY BIOTECH, LLC, priority 2008, published 2011).

Legend:
[1] = system: U-87 MG cells; test: Subcutaneous human glioblastoma U-87 MG tumor xenograft model; type: in vivo, athymic nude mice (BALB/c-nu/nu); details: HuL2G7 0.5 mg/kg i.v. days 12 and 18
Description: The combination effect of HuL2G7 with Rapamycin was examined in human glioblastoma U-87 MG tumor xenograft model. Female athymic nude mice (BALB/c-nu/nu, 30 animals) were purchased from Charles River Laboratories (Kanagawa, Japan). Mice were housed in a barrier facility with 12-h light/dark cycles and provided with food and tap water ad libitum and maintained for three weeks. U-87 MG cells (2.5×10^6 in 100 μL) were suspended with 50% Matrigel (BD Biosciences) buffered with Hanks. balanced salt solution (Invitrogen Corp, Carlsbad, Calif., USA) and inoculated subcutaneously into the right-flank of each mouse. After the tumor xenografts were established, at day 12 after inoculation, mice with tumors (approximately 95-272 mm^3) were randomized into groups of 4 (n=6) based on tumor volumes so as to minimize variation in tumor volumes. Then each group was treated with vehicle, HuL2G7, Rapamycin, or both drugs. […] Tumor volumes were assessed by bilateral vernier caliper measurement at days 12, 15, 18, 22, and 26 after inoculation and calculated using the formula, length×width^2×½, where length was taken to be the longest diameter across the tumor and width the corresponding perpendicular. Tumor growth was evaluated by the following formula: T/C (%)=ΔT/ΔC×100, where ΔT and ΔC are changes in tumor volume for each treated and vehicle control group. […]

[2] = molecular target: heparin sulfate proteoglycans (HSPG); details: read-out: Kd, low affinity binding site; cited from earlier work
[3] = molecular target: cMet receptor (Homo sapiens, UniProt P08581); details: read-out: Kd, high affinity binding site; cited from earlier work
Chain of cMet receptor (P08581 25-1390): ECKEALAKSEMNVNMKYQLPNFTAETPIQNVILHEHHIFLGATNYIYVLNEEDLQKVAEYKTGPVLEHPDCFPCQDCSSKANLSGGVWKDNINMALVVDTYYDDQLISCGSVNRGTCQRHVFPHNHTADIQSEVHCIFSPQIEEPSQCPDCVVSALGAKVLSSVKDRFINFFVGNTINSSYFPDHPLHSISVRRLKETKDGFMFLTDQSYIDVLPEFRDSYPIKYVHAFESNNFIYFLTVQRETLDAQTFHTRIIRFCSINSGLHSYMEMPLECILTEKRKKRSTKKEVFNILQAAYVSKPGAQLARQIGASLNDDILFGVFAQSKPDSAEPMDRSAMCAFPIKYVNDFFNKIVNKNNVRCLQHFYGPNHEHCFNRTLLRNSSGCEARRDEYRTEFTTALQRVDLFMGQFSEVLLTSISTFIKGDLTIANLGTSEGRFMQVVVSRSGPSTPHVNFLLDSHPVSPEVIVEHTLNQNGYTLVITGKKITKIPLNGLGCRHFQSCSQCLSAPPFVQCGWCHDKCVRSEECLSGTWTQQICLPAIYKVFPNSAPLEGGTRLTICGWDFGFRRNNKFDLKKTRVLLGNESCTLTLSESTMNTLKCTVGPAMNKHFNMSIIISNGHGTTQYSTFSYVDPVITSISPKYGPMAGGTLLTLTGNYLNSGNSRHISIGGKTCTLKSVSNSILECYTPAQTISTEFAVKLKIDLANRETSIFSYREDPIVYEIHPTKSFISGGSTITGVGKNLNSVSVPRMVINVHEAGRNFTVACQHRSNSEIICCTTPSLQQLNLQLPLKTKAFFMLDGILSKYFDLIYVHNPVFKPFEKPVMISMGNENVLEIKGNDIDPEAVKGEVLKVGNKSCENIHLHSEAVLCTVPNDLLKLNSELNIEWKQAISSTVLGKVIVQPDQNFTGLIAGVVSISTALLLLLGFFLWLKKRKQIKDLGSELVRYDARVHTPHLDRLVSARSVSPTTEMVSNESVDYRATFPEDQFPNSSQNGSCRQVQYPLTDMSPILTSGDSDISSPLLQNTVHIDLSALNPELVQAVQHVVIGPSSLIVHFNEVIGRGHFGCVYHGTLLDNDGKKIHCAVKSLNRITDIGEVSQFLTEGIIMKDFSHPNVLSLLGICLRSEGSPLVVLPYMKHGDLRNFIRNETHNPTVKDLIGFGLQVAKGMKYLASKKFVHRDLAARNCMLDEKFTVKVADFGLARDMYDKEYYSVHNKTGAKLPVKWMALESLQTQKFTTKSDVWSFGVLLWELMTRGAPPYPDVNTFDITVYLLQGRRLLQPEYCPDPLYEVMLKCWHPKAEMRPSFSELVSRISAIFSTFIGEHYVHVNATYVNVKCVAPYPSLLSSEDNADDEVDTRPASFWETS

| general observations of animals ([1]; Rapamycin 0.1 mg/kg i.p. days 12-26, or both) | Molecule | T/C (%)=ΔT/ΔC×100 ([1]; day 26, Rapamycin 0.1 mg/kg i.p. once-daily days 12-26) | Kd [2] | Kd [3] |
| --- | --- | --- | --- | --- |
| no abnormalities in general observations | CO[C@H]1C[C@@H]2CC[C@@H](C)[C@@](O)(O2)C(=O)C(=O)N2CCCC[C@H]2C(=O)O[C@H]([C@H](C)C[C@@H]2CC[C@@H](O)[C@H](OC)C2)CC(=O)[C@H](C)/C=C(\C)[C@@H](O)[C@@H](OC)C(=O)[C@H](C)C[C@H](C)/C=C/C=C/C=C/1C [rapamycin, reference compound] | 9.6% |  |  |
|  | HGF: Human Hepatocyte Growth Factor, 102 kDa heterodimeric polypeptide, ligand of cMet |  | 1 nM | 0.2 nM |
